Assay results taken from US5602167A, “4-arylcyclohepta[c] pyrrole analgesics” (Ortho Pharmaceutical Corporation, priority 1995, dated 1997).

Experiment: Mouse Acetylcholine Bromide-Induced Abdominal Constriction Assay
Format: in vivo
Conditions: % analgesia
[1] = 30 mg/kg po, 30 min before 5.5 mg/kg i.p. acetylcholine bromide
[2] = 30 mg/kg sc, 5.5 mg/kg i.p. acetylcholine bromide

CN1C[C@H]2CCCC[C@](O)(c3ccccc3)[C@H]2C1 (relative stereo) [Cp-1]
% Inhibition at 30 mg/kg (route) [1]: 93%

COc1cccc([C@@]2(O)CCCC[C@@H]3CN(C)C[C@@H]32)c1 (relative stereo) [Cp-2]
% Inhibition at 30 mg/kg (route) [1]: 80%

CN1C[C@H]2CCCC[C@](O)(c3ccc(F)cc3)[C@H]2C1 (relative stereo) [Cp-3]
% Inhibition at 30 mg/kg (route) [1]: 100%

CN1C[C@H]2CCCC[C@H](c3ccccc3)[C@H]2C1 (relative stereo) [Cp-4]
% Inhibition at 30 mg/kg (route) [1]: 80%

CN1C[C@H]2CCCC[C@@H](c3ccccc3)[C@H]2C1 (relative stereo) [Cp-5]
% Inhibition at 30 mg/kg (route) [1]: 100%

CN1C[C@H]2CCCC[C@H](c3ccc(F)cc3)[C@H]2C1 (relative stereo) [Cp-6]
% Inhibition at 30 mg/kg (route) [1]: 93%

CN1C[C@H]2CCCC[C@@H](c3ccc(F)cc3)[C@H]2C1 (relative stereo) [Cp-7]
% Inhibition at 30 mg/kg (route) [1]: 100%

COc1cccc([C@H]2CCCC[C@@H]3CN(C)C[C@@H]32)c1 (relative stereo) [Cp-8]
% Inhibition at 30 mg/kg (route) [2]: 100%

COc1cccc([C@@H]2CCCC[C@@H]3CN(C)C[C@@H]32)c1 (relative stereo) [Cp-9]
% Inhibition at 30 mg/kg (route) [2]: 90%
